# Experimental data taken from PubChem BioAssay (NCI).
# Several values for one entry are separate records, joined by “and”; a condition that tells them apart may be missing. Identical values can stand only once.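 Exposure lasted 48 hours, with cells grown in 96-well plates and compounds tested at five concentrations. At the GI50, growth is halved. At the TGI there is no net growth.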
# Assays:
# Assay in all cases: inhibition of tumour cell growth, NCI panel, 48 h
# SF-295 CNS = tested on: SF-295 CNS
# HOP-62 NSCLC = tested on: HOP-62 NSCLC
# LOX IMVI melanoma = tested on: LOX IMVI melanoma
# COLO 205 colon = tested on: COLO 205 colon
# HCC-2998 colon = tested on: HCC-2998 colon
# SN12C renal = tested on: SN12C renal
# SK-OV-3 ovarian = tested on: SK-OV-3 ovarian
# SK-MEL-2 melanoma = tested on: SK-MEL-2 melanoma
# SK-MEL-5 melanoma = tested on: SK-MEL-5 melanoma
# CAKI-1 renal = tested on: CAKI-1 renal
Structure (SMILES),GI50 (SF-295 CNS) [µM],TGI (SF-295 CNS),GI50 (HOP-62 NSCLC) [µM],TGI (HOP-62 NSCLC) [µM],GI50 (LOX IMVI melanoma) [µM],TGI (LOX IMVI melanoma) [µM],GI50 (COLO 205 colon) [µM],TGI (COLO 205 colon) [µM],GI50 (HCC-2998 colon) [µM],TGI (HCC-2998 colon),GI50 (SN12C renal) [µM],TGI (SN12C renal),GI50 (SK-OV-3 ovarian) [µM],TGI (SK-OV-3 ovarian),GI50 (SK-MEL-2 melanoma) [µM],TGI (SK-MEL-2 melanoma) [µM],GI50 (SK-MEL-5 melanoma) [µM],TGI (SK-MEL-5 melanoma),GI50 (CAKI-1 renal) [µM],TGI (CAKI-1 renal) [µM]
O=C(CCCCC(=O)N/N=C\c1ccccc1O)N/N=C\c1ccccc1O,1.98,6.55 µM,4.12,71.8,2.3,> 100,3.67,> 100,3.87,> 100 µM,4.5,> 100 µM,5.63,> 100 µM,6.66,> 100,3.22,> 100 µM,,
O=C(O)/C(=C\c1ccncc1)c1cccc2ccccc12,,> 100 µM,,> 100,,> 100,,> 100,,,,> 100 µM,,> 100 µM,,> 100,,> 100 µM,,
Oc1ccc(N=Nc2ccccn2)c(O)c1,0.522,> 100 µM,0.832,> 100,0.365,> 100,0.732,> 100,0.49,> 100 µM,1.91,> 100 µM,1.23,> 100 µM,7.44,> 100,2.1,24.2 µM,,
O=Nc1c(-c2c(O)[nH]c3ccc(Br)cc23)[nH]c2ccccc12,9.8,54.1 µM,4.4,13.8,2.18,11,2.82,13.9,,,4.09,> 100 µM,5.22,77.3 µM,2.65,> 100,1.24,2.53 µM,3.44,> 100
[N-]=[N+]=C(C(=O)N1CCCC1=O)S(=O)(=O)c1ccccc1,,> 100 µM,,> 100,,> 100,,> 100,,> 100 µM,,> 100 µM,,,,> 100,,> 100 µM,,
CC(C)=CC(=O)Cc1nc2ccc([N+](=O)[O-])cc2[nH]c1=O,,> 100 µM,,> 100,,> 100,,> 100,,,,> 100 µM,,> 100 µM,,> 100,,> 100 µM,,> 100
C[C@]12CCC(=O)C=C1CC[C@@H]1C2CC[C@]2(C)c3nn(-c4ccccc4)nc3CC12 (stereo not given in full),,> 100 µM,,> 100,,> 100,,> 100,,> 100 µM,,> 100 µM,,> 100 µM,,> 100,,> 100 µM,,
C/C=C(/C)C(=O)O[C@H]1[C@H](O)CC(c2ccc3c(c2O)C(O)=C2C(=O)C4(OC)C(O)=C(C(N)=O)C(=O)[C@H](CC(=O)c5ccccc5O)C4CC2[C@@]3(C)OC)O[C@@H]1C (stereo not given in full),,0.193 µM and 0.128 µM,,,,0.132,,0.0288,,1.25 µM and 1.05 µM,,1.39 µM and 0.198 µM,,5.72 µM and 2.05 µM,,0.0696,,0.0149 µM and 0.0199 µM,,
Cc1c(Cl)cccc1NC(=O)c1sc2nc3c(cc2c1N)CCCCC3,0.17,10 µM,0.411,45.3,0.262,23.7,0.596,13.2,1.76,> 50 µM,1.44,> 50 µM,0.23,29.9 µM,0.255,25.2,0.263,48.6 µM,,
Oc1ccc(Cc2cc(Cl)cc(Cl)c2O)cc1Cl,,39.6 µM,,37.3,,31.4,,35,,,,30.2 µM,,60.5 µM,,29.7,,32.1 µM,,51.5
CCN1CCC(O)(/C=C/c2ccc(OC)cc2)C(C(=O)/C=C/c2ccc(OC)cc2)C1 (stereo not given),,29.2 µM,,33.4,,8.82,,20.6,,29 µM,,28 µM,,22.5 µM,,,,,,
Cc1cc(Nc2cc(N)ncn2)c(=O)n2c1C(=O)NC21CCCCC1,46.8,> 100 µM,31.2,> 100,> 100,> 100,> 100,> 100,> 100,> 100 µM,> 100,> 100 µM,62,> 100 µM,58.2,> 100,> 100,> 100 µM,,
O=C(NC(=O)c1ccccc1[N+](=O)[O-])Nc1ccc(Oc2ncc(Cl)cn2)c(C(F)(F)F)c1,,> 4.64 µM,,66.4,,13.8,,0.109,,0.0775 µM,,62.9 µM,,> 46.5 µM,,,,1.17 µM,,
Cc1cccc2c(O)cc(=O)oc12,,> 100 µM,,> 100,,> 100,,,,,,> 100 µM,,> 100 µM,,,,,,
O=C(CC/C(CC(=O)c1ccc(Br)cc1)=N\O)Nc1ccc(Cl)c(Cl)c1,,> 100 µM,,> 100,,> 100,,> 100,,> 100 µM,,> 100 µM,,> 100 µM,,> 100,,> 100 µM,,
